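Method: 48-hour compound exposure of cells in 96-well plates, five concentrations, linear interpolation of endpoints. GI50 is the concentration that inhibits growth by half.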 The source made the active and inactive calls. No stated cut-off is given here; in the data, active = GI50 up to about 1.1 µM and inactive = higher.
Assays:
Assay in all cases: inhibition of tumour cell growth, NCI panel, 48 h
A498 = tested on: A498
CAKI-1 = tested on: CAKI-1
HCT-116 = tested on: HCT-116
HCT-15 = tested on: HCT-15
IGROV-1 = tested on: IGROV-1
KM12 = tested on: KM12
Malme-3M = tested on: Malme-3M
SF-539 = tested on: SF-539
SK-MEL-28 = tested on: SK-MEL-28
SK-OV-3 = tested on: SK-OV-3
SNB-19 = tested on: SNB-19
SNB-75 = tested on: SNB-75
SW-620 = tested on: SW-620
UO-31 = tested on: UO-31
SR = tested on: SR

Measured: GI50

O=C1CCC(=O)C1=NNc1cc(Cl)cc(Cl)c1
inactive: A498 15.6 µM | CAKI-1 > 100 µM | HCT-116 76.4 µM | IGROV-1 > 100 µM | KM12 > 100 µM | Malme-3M > 100 µM | SF-539 > 100 µM | SK-MEL-28 > 100 µM | SK-OV-3 > 100 µM | SNB-19 > 100 µM | SNB-75 > 100 µM | SW-620 > 100 µM | UO-31 > 100 µM
55.8 µM: HCT-15

O=c1[nH]c(C2CCCCC2)nc2c(Cl)cccc12
> 100 µM: HCT-15
inactive: A498 > 100 µM | CAKI-1 > 100 µM | HCT-116 > 100 µM | IGROV-1 > 100 µM | KM12 > 100 µM | Malme-3M > 100 µM | SF-539 > 100 µM | SK-MEL-28 > 100 µM | SK-OV-3 > 100 µM | SNB-19 > 100 µM | SNB-75 > 100 µM | SW-620 > 100 µM | UO-31 > 100 µM

O=c1[nH]c(=O)n(C2CC(O)C(CO)O2)cc1C(F)(C(F)(F)F)C(F)(F)F (stereo not drawn)
inactive: A498 > 100 µM | CAKI-1 > 100 µM | IGROV-1 > 100 µM | KM12 > 100 µM | Malme-3M > 100 µM | SF-539 > 100 µM | SK-MEL-28 > 100 µM | SK-OV-3 > 100 µM | SNB-19 > 100 µM | SNB-75 > 100 µM | SR > 100 µM | SW-620 > 100 µM | UO-31 > 100 µM
> 100 µM: HCT-15

CCCCN(CC)C(=O)C(=O)Cc1nc2ccc(C(=O)c3ccccc3)cc2nc1O
67.1 µM: HCT-15
inactive: A498 > 100 µM | CAKI-1 54.3 µM | HCT-116 > 100 µM | IGROV-1 > 100 µM | KM12 > 100 µM | SF-539 98.9 µM | SK-MEL-28 73.3 µM | SK-OV-3 85.1 µM | SNB-19 98.6 µM | SNB-75 25.8 µM | SR 21.6 µM | SW-620 > 100 µM | UO-31 33.3 µM

COC(=O)OCC1OC(N2C(=O)NC(=O)C(I)C2N=[N+]=[N-])CC1OC(=O)OC (stereo not drawn)
inactive: CAKI-1 > 100 µM | HCT-116 > 100 µM | IGROV-1 > 100 µM | KM12 > 100 µM | Malme-3M > 100 µM | SF-539 > 100 µM | SK-MEL-28 > 100 µM | SK-OV-3 > 100 µM | SNB-19 > 100 µM | SNB-75 > 100 µM | SR > 100 µM | SW-620 > 100 µM | UO-31 > 100 µM
> 100 µM: HCT-15

OCC(CO)C1c2cccc3ccc4cccc1c4c23
inactive: A498 > 100 µM | CAKI-1 > 100 µM | HCT-116 > 100 µM | IGROV-1 > 100 µM | KM12 > 100 µM | Malme-3M > 100 µM | SF-539 > 100 µM | SK-MEL-28 > 100 µM | SK-OV-3 > 100 µM | SNB-19 > 100 µM | SNB-75 54.1 µM | SR > 100 µM | SW-620 > 100 µM | UO-31 62.5 µM

Cn1c(=O)c2[nH]cnc2n(CC(=O)O)c1=O
inactive: A498 > 100 µM | CAKI-1 > 100 µM | HCT-116 > 100 µM | IGROV-1 > 100 µM | KM12 > 100 µM | Malme-3M > 100 µM | SF-539 > 100 µM | SK-MEL-28 > 100 µM | SK-OV-3 > 100 µM | SNB-19 > 100 µM | SNB-75 > 100 µM | SR > 100 µM | SW-620 > 100 µM | UO-31 > 100 µM
> 100 µM: HCT-15

COC1CC(OC)C(O)C(CO)O1 (stereo not drawn)
> 100 µM: HCT-15
inactive: HCT-116 > 100 µM | IGROV-1 > 100 µM | KM12 > 100 µM | Malme-3M > 100 µM | SF-539 > 100 µM | SK-MEL-28 > 100 µM | SK-OV-3 > 100 µM | SNB-75 > 100 µM | SR > 100 µM | SW-620 > 100 µM | UO-31 > 100 µM

CC(C)(C)c1cc(C(O)(C(F)(F)F)C(F)(F)F)c2c(c1)C(C(F)(F)F)(C(F)(F)F)OC(C(C)(C)C)N2 (stereo not drawn)
2.99 µM: HCT-15
inactive: CAKI-1 3.12 µM | HCT-116 1.96 µM | IGROV-1 4.95 µM | KM12 3.65 µM | Malme-3M 5.31 µM | SF-539 2.55 µM | SK-MEL-28 5.16 µM | SK-OV-3 1.43 µM | SNB-19 5.79 µM | SNB-75 2.56 µM | SR 2.24 µM | SW-620 3.21 µM | UO-31 7.55 µM

CCOC(=O)c1sc2c(C(=O)OCC)n3cc(C)cc(C)c3c2c1O
inactive: CAKI-1 > 100 µM | HCT-116 > 100 µM | IGROV-1 > 100 µM | KM12 > 100 µM | Malme-3M > 100 µM | SF-539 > 100 µM | SK-MEL-28 > 100 µM | SK-OV-3 > 100 µM | SNB-19 > 100 µM | SNB-75 58.7 µM | SR > 100 µM | SW-620 > 100 µM | UO-31 > 100 µM

Reference: ChEMBL document CHEMBL1201862, “PubChem BioAssay data set” (2004)
